Laboratory results published in article PMC6274259, “New 3-Cyano-2-Substituted Pyridines Induce Apoptosis in MCF 7 Breast Cancer Cells” (Molecules, 2016).

Experiments:
[1] = system: SK-OV-3 human ovarian carcinoma cell line; assay: WST-1 cell viability assay, SK-OV-3; assay type: cell-based; conditions: Homo sapiens, SK-OV-3; WST-1, 24 h treatment, mean ± S.D of three independent experiments
From the text: The synthesized compounds were screened for their cytotoxicity on five cancer cell lines, namely SK-OV-3, MCF-7, MDA-MB-231, HCT-116 and RKO, using a WST colorimetric assay. The assay principle is based upon the reduction of the tetrazolium salt WST-1 to formazan by cellular mitochondrial dehydrogenases present in viable cells. […] Among the latter compounds the benzohydrazide derivative 9a emerged with the lowest IC50 in this study against MCF-7 cells compared to 5-FU. […] Based on the fact that 9a had less cytotoxic effects on normal breast epithelial cells it was subjected to further studies.
The following cell lines were used for the screening stage, obtained from the American Type Culture Collection (ATCC, Manassas, VA, USA); SK-OV-3 (HTB-77), MCF-12A (ATCC CRL-10782), MDA-MB-231 (ATCC HTB-26), HCT-116 (CCL-247), RKO (CRL-2577) and sub-culturing of the above cell lines was conducted in 75 cm^2 flasks. The old culture media was removed and discarded after assessing the confluency of the cells and the cells were rinsed with 2–3 mL diluted trypsin (1×) (trypsin/EDTA solution consists of 0.025% trypsin and 0.01% EDTA in PBS), for about 5 minutes for complete detachment. The cells were observed under the inverted microscope until the cell layer is completely dispersed. 75 cm^2 flasks were prepared and 16 mL of DMEM media for SK-OV-3, MCF-7, MDA-MB-231, (DMEM 4500 mg glucose) and RPMI media for HCT-116 were added to each flask. The cells were aspirated gently and added to the flasks. DMEM 4500 mg/L high glucose with 10% FBS, 5% streptomycin and penicillin, RPMI 1640 (prepared by adding 5% heat-inactivated FCS and 2 mm glutamine) were used. DMEM was also used for MCF-12A cells with the addition of human epidermal growth factor 20 ng/mL, insulin 0.01 mg/mL and hydrocortisone 500 ng/mL.
The synthesized compounds were screened for their anti-proliferative activity using 5-FU (F6627-1G, Sigma-Aldrich, St. Louis, MO, USA) as reference compound. A concentration of 0.4% DMSO was used in all experiment after ensuring 100% viability of the cell lines with this concentration. A 25 mM stock concentration of all compounds was prepared for further studies and analysis.
Cells were trypsinized and placed in a 15 mL Falcon tube, the cells were centrifuged for 3 min at 1000 rpm. Trypsin is decanted using a sterile pipette and then the pellet is loosened by flicking the tube few times then 5–10 mL warm DMEM or RPMI were added to the Falcon tube and the pellet is resuspended. Cell count was done next by taking 10 μL of the suspension into the cell counting slide and read under 10× cells/mL. A cell stock of 50,000 cells/mL was prepared for the 96 wells. Cells (100 μL) were added to each well using a sterile pipette each time to ensure consistency. The experiment was planned ahead of time using excel sheet, 3–6 wells were reserved as blank media while 3–6 wells for vehicle (DMSO). The plate was incubated for 24 h for compound treatment step. DMEM media was used to prepare different dilutions of the compounds. The old DMEM media was removed from the wells using sterile pipette in the hood and the media was replaced with 100 μL media with each compound. The plate was incubated for 24 h. After 24 h incubation, WST-1 reagent (Sigma) was added to each well and then the plate was incubated for 1 h before measuring the absorbance using VICTOR™ Multilabel Plate Reader (Perkin Elmer, Beaconsfield, UK). The absorbance of the colored solution can be quantified by measuring at a certain wavelength (usually between 500–600 nm), in this experiment the first reading was conducted at 540 nm and the second reading at 690 nm for the reference wavelength. The percentage of cell viability was determined as the ratio of the absorbance of the sample vs the control. Three independent experiments were performed. […] 5-Florouracil (Sigma-Aldrich, F6627-1G) was used as reference standard.

MCF-7 cells [2] = assay: Enzyme linked immunosorbent apoptosis assay (Cell Death Detection ELISA PLUS); assay type: cell-based, human
Experimental: Compound 9a was further investigated for induction of apoptosis in MCF-7 cells using Cell Death Detection ELISA^PLUS which is used for the quantitative in vitro determination of cytoplasmic histone-associated DNA fragments (mono- and oligonucleosomes) in apoptosing cells.
Cells were seeded at a density of 2 × 10^4/ well in a 96-well plate and incubated for 24 h. […] An ELISA assay was performed using Cell Death Detection ELISA PLUS kit (Roche-Applied Science, Indianapolis, IN, USA) for the quantitative in vitro determination of cytoplasmic histone-associated DNA fragments (mono- and oligonucleosomes) in apoptosing cells. Briefly, cells were lysed with 200-μL lysis buffer for 30 min at room temperature. The lysate was centrifuged at 200 g for 10 min. 150 μL of supernatant was collected, of which 20 μL was incubated with anti-histone biotin and anti-DNA peroxidase at room temperature for 2 h. After washing with incubation buffer three times, 100 μL of substrate solution (2,2′-azino-di(3-ethylbenzthiazolinsulphonic acid) was added to each well and incubated for 15–20 min at room temperature. The absorbance was measured using an ELISA reader (Spectra Max Plus) at 405 nm. The control group was cells without compounds treatment. Each assay was done in triplicate and the standard deviation was determined.

MCF-7 cells [3] = assay: Flow cytometric cell cycle analysis (PI staining); assay type: cell-based, human; conditions: 2 μM, 24 h; control group 37%
Experimental: Flow cytometry is considered one of the specific tools for the investigation of molecular and morphological events occurring during cell death and cell proliferation. Therefore, the effect of compound 9a on cell cycle progression was studied by flow cytometry in propidium iodide (PI) stained cells. The percent of cells in G1, S, G2 phases was determined after treating cells with 2 μM of 9a for 24 h (Figure 4D). […] Thus, it can be concluded that compound 9a inhibits the proliferation of MCF-7 cells and the growth inhibition is associated with induction of G1 phase arrest. p27 is considered as an important regulator of cell cycle. To determine whether compound 9a-induced G1 arrest was associated with increased p27 level, and to study the effect on the expression of CDK2 and CDK4 involved in cell cycle progression, cells were analyzed for the expression of these proteins using western blot analysis after treatment with 2 μM of 9a for 24 h.
MCF-7 cells were seeded in 25 cm^2 flasks until reaching the desirable confluence of 1 million cells and media was changed to media containing compound 9a (2 μM). After 24 h incubation, the cells were harvested by trypsinization to detach the cells without affecting the integrity of the cell membrane. The cells were incubated with PI for 5 min at room temperature, washed twice with PBS and […]. […]

COc1ccc(-c2cc(-c3ccc(OC)c(OC)c3)c(C#N)c(OCC(=O)NNC(=O)c3ccccc3)n2)cc1OC [Compound 9a, N'-[2-(3-cyano-4,6-bis(3,4-dimethoxyphenyl)pyridin-2-yloxy)acetyl]benzohydrazide]
IC50 [1]: 9.06 ± 0.24 µM
induction of apoptosis, concentration dependence (MCF-7 cells [2]; 0.1 to 4 μM): increased in a dose dependent fashion
induction of apoptosis, exposure time with optimum value (MCF-7 cells [2]; exposure 3 h to 48 h): 24 h
percent of G1 population (MCF-7 cells [3]): 54%
